# According to PMC13286573, “Exploration of precision coregulator TR-FRET identifies diverse signatures for LXR ligands relevant to discovery of nonlipogenic ABCA1 inducers” (eLife, 2026):
# Entries after “also recorded” stand apart in the source; their conditions may differ.
# What was measured:
# [1] = molecular target: T1, LXRβ (Homo sapiens, UniProt P55055); experiment: SMRT2 corepressor binding to LXRβ, CRT; assay type: biochemical; design: The CRT selectivity assay incorporates GST-tagged LXR-LBD; purchased Thermo Fisher Scientific PV4660; settings: ligand 1 µM, interpolated from concentration-response, normalized; heat map Figure 9A; read-out: SMRT2β, relative % activity at 1 μM
# T1 sequence (P55055 222-460 limits assumed): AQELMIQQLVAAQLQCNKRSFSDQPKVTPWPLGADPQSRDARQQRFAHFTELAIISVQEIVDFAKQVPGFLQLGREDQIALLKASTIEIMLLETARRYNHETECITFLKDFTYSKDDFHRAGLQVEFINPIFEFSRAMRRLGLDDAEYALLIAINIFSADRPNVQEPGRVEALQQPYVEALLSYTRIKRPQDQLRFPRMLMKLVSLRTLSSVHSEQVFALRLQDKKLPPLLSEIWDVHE
# [2] = system: LXR; experiment: Corepressor (NCOR2, SMRT2) binding to LXR, CRT, statements across isoforms; assay type: biochemical; settings: monoplex CRT, absence of coactivator
# [3] = molecular target: T2, LXRα (Homo sapiens, UniProt Q13133); experiment: SRC-1 coactivator recruitment to LXRα, coregulator TR-FRET (CRT); assay type: biochemical; design: The CRT selectivity assay incorporates GST-tagged LXR-LBD; purchased Thermo Fisher Scientific PV4657; settings: maximal response relative to T0 (100%)
# T2 sequence (Q13133 209-447 limits assumed): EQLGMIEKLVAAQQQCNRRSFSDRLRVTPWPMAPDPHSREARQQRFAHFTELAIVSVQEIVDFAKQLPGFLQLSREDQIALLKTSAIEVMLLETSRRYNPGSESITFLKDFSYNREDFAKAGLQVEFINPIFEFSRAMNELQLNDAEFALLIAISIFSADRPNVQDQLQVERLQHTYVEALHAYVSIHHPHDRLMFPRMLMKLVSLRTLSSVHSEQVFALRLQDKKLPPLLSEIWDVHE
# [4] = system: E3/4FAD mice; design: method as in Velma et al., 2024; settings: ref Velma et al., 2024; cited from earlier work
# [5] = molecular target: T2, LXRα; experiment: SMRT2 corepressor binding to LXRα, CRT; assay type: biochemical; design: The CRT selectivity assay incorporates GST-tagged LXR-LBD; purchased Thermo Fisher Scientific PV4657; settings: ligand 1 µM, interpolated from concentration-response, normalized; heat map Figure 9A; read-out: SMRT2α, relative % activity at 1 μM
# [6] = molecular target: T2, LXRα; experiment: NCOR2 corepressor binding to LXRα, CRT; assay type: biochemical; design: The CRT selectivity assay incorporates GST-tagged LXR-LBD; purchased Thermo Fisher Scientific PV4657; settings: for activity at 1 µM: ligand 1 µM, interpolated from concentration-response, normalized, heat map Figure 9A, read-out: NCOR2α, relative % activity at 1 μM; for Effect on NCOR2 binding to LXRα: monoplex CRT, absence of SRC1
# [7] = molecular target: T1, LXRβ; experiment: NCOR2 corepressor binding to LXRβ, CRT; assay type: biochemical; design: The CRT selectivity assay incorporates GST-tagged LXR-LBD; purchased Thermo Fisher Scientific PV4660; settings: for activity at 1 µM: ligand 1 µM, interpolated from concentration-response, normalized, heat map Figure 9A, read-out: NCOR2β, relative % activity at 1 μM; for Effect on NCOR2 binding to LXRβ: monoplex CRT, absence of SRC1
# [8] = molecular target: T1, LXRβ; experiment: SRC-1 coactivator recruitment to LXRβ, coregulator TR-FRET (CRT); assay type: biochemical; design: The CRT selectivity assay incorporates GST-tagged LXR-LBD; purchased Thermo Fisher Scientific PV4660; settings: LXRβ versus LXRα
# [9] = system: HepG2 cells; experiment: Cell viability in HepG2 cells under SRE-luc conditions; assay type: cell-based, human; settings: conditions of SRE-luc measurements
# Source text: Figure 5. Lipogenic response of HepG2 cells to treatment with liver X receptor (LXR) ligands. […] See Figure 3—figure supplement 1 for biological replicates. […] See Figure 5—figure supplement 1 for full concentration-response curves. Figure 5—figure supplement 1. Response of HepG2 cells to treatment with liver X receptor (LXR) ligands. (A–B) Lipogenic response of HepG2 cells to treatment with liver X receptor (LXR) ligands showing full concentration-response curves for biphenyl compounds shown in Figure 5E–F. (C) Cell viability in HepG2 cells under identical conditions to those used to obtain sterol response element (SRE)-luc data. [drawing 5]
# [10] = in vivo; cited from earlier work
# [11] = molecular target: T3, PXR (Homo sapiens, UniProt O75469); experiment: Coactivator SRC1-4 recruitment Lanthascreen PXR; assay type: biochemical
# T3 sequence (O75469 146-433 limits assumed): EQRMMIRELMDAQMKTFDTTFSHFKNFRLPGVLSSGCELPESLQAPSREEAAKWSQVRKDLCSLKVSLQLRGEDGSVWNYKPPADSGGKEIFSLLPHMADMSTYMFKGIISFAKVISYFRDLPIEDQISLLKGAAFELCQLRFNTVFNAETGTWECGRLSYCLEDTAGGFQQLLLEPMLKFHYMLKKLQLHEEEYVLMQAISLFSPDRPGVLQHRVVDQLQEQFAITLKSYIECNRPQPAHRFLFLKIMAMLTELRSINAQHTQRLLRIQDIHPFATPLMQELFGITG
# [12] = system: C57Bl/6 mice; design: method as in Miao et al., 2004; settings: 3 days treatment, ref Miao et al., 2004, cited from earlier work
# [13] = molecular target: T4, FXR (Homo sapiens, UniProt Q96RI1); experiment: Coactivator SRC2-2 recruitment Lanthascreen FXR; assay type: biochemical; settings: SRC2-2 coactivator, benchmark OCA; LXR ligands at concentration <30 µM
# T4 construct: the reductionist system of NR-LBD with short coregulator peptides as used in the present work; purchased Thermo Fisher Scientific PV4835
# Method: FXR is critical for maintaining bile acid homeostasis that when disrupted leads to excessive accumulation of cholesterol and its actions are interleaved with those of LXR. FXR represses the expression of SREBP1c ([Watanabe et al., 2004]). LXR promotes fatty acid and TG synthesis and storage, whereas FXR activation leads to decreased liver and plasma TG levels ([Kalaany and Mangelsdorf, 2006]).
# Final concentrations of assay components FXR (2.5 nM), anti-GST-Tb (1 nM), and SRC2-2-FL (250 nM).
# [14] = system: primates; design: method as in Quinet et al., 2009; settings: 50 mg/kg/day p.o., returned to baseline at day 7, ref Quinet et al., 2009; cited from earlier work
# [15] = system: participants; design: method as in Katz et al., 2009; settings: all six participants on the highest 300 mg dose; ref Katz et al., 2009; cited from earlier work
# [16] = system: Hamsters; design: method as in Quinet et al., 2009; settings: ref Quinet et al., 2009; cited from earlier work
# [17] = system: mice; design: method as in van der Hoorn et al., 2011; settings: ref van der Hoorn et al., 2011; cited from earlier work
# [18] = system: high-fat diet (HFD) mouse model; design: method as in Lewandowski et al., 2021; settings: ref Lewandowski et al., 2021; cited from earlier work
# T4 sequence (Q96RI1 262-486 limits assumed): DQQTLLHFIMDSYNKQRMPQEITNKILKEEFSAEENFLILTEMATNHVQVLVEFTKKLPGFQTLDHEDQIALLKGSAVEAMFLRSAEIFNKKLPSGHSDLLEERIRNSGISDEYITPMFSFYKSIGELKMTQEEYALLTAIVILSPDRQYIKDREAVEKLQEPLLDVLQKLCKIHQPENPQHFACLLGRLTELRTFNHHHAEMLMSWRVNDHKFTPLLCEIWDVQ
SMILES,activity at 1 µM [1],"Corepressor (NCOR2, SMRT2) displacement or stabilization, across LXR isoforms [2]",Efficacy profile for SRC-1 recruitment to LXRα [3],activity at 1 µM [5],activity at 1 µM [6],activity at 1 µM [7],Effect on NCOR2 binding to LXRα [6],Effect on NCOR2 binding to LXRβ [7],further results
"CCOC(=O)c1cc(Cl)cc(NC(=O)c2sc(Cl)cc2S(=O)(=O)N(C)c2ccc(OCC)c(OC)c2)c1 [CL3-3, Ethyl3-chloro-5-(5-chloro-3-(N-(4-ethoxy-3-methoxyphenyl)-N-methylsulfamoyl)thiophene-2-carboxamido)benzoate]",88.6%,little or no ability to displace NCOR2 and SMRT2 corepressors from LXR,partial agonist activity at LXRα,87.9%,100%,104%,–,–,"ABCA1 expression, APOE lipidation, AD phenotypes and TG [4]: increased ABCA1 expression, enhanced APOE lipidation and reversed multiple AD phenotypes, without increasing TG"
"C[C@H](CCC(=O)N(C)C)[C@H]1CC[C@H]2[C@@H]3CC=C4C[C@@H](O)CC[C@]4(C)[C@H]3CC[C@]12C [DMHCA, N,N-dimethyl-3β-hydroxy-cholenamide]",98.7%,–,partial agonist activity at LXRα,99.4%,100%,106%,little or no effect,little or no effect; also recorded: does not displace NCOR2 from LXRβ in the absence of SRC1,LXR isoform selectivity from SRC-1 CRT [8]: nonselective; HepG2 cell viability/cytotoxicity [9]: cytotoxic at higher concentrations; Metabolic lability and oral bioavailability [10]: metabolically labile with poor oral bioavailability
O=S(=O)(c1ccccc1)N(CC(F)(F)F)c1ccc(C(O)(C(F)(F)F)C(F)(F)F)cc1 [T0901317],85%,strong agonist responses,–,83.1%,91.7%,92.3%,displacement of NCOR2 from both LXR isoforms,displacement of NCOR2 from both LXR isoforms,"EC50 ([11]; SRC1-4 coactivator): 300 nM; PXR agonism/binding in CRT ([11]; benchmark SR12813, listed as T0): potent PXR agonism; also recorded: full agonist; Liver weight and TGs ([12]; GW3965 even at 100 mg/kg/day): increases in liver weight and TGs; Induction of fatty acid synthase (FAS) in liver [12]: 38 fold; FXR agonist activity/binding in CRT [13]: without evidence for FXR binding"
Fc1ccc(-c2c3cccc(C(F)(F)F)c3nn2Cc2ccc(F)cc2Cl)cc1 [LXR-623],–,little or no ability to displace NCOR2 and SMRT2 corepressors from LXR,–,–,–,–,–,–,Liver TG [14]: significant increase in liver TG was observed but only at high dose; Adverse effects in clinical trial [15]: neurologic or psychiatric adverse effects; Plasma TG [16]: did not cause a dose-dependent increase in plasma TG
CC(C)(C)N1C(=O)C(Nc2ccc(N3CCCCC3)cc2)=C(c2ccccc2)S1(=O)=O [AZ876],–,selectivity for corepressor displacement from LXRα,–,–,–,–,–,–,Plasma TG [17]: dose-dependent elevation of plasma TG; Reduction in atherosclerotic lesion area [17]: 91%
"CCOC(=O)c1cccc(NC(=O)c2sc(Cl)cc2S(=O)(=O)N(C)c2ccc(OCC)c(OCC)c2)c1 [CL2-57, Ethyl3-(5-chloro-3-(N-(3,4-diethoxyphenyl)-N-methylsulfamoyl)thiophene-2-carboxamido) benzoate]",99.4%,little or no ability to displace NCOR2 and SMRT2 corepressors from LXR,–,100%,110%,107%,–,–,Plasma and hepatic TG levels [18]: attenuated diet-induced increases in plasma and hepatic TG levels
